# Reference: patent US20240368135A1 (VERTEX PHARMACEUTICALS INCORPORATED, priority 2021, published 2024)
# Where two headings read alike, the source gives them in different places.
# Biological target: human NaV 1.8 (Homo sapiens, UniProt Q9Y5Y9)
# Test: E-VIPR assay detecting and measuring NaV inhibition properties
# Type: cell-based
# Conditions: HEK cells expressing truncated human NaV 1.8
# Procedure, shortened: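 HEK cells expressing truncated, fully active human NaV1.8, with KIR2.1 BacMam co-transduction, were loaded with CC2-DMPE/DiSBAC6(3) voltage-sensing dyes for 20 min at room temperature. Compounds were tested in 11-point 3-fold dilutions (300 nM top final), optionally with 25% human serum, under electrical stimulation with FRET read-out.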
# [1] = no human serum, read-out: IC50 in the E-VIPR Assay
# Chain of human NaV 1.8 (Q9Y5Y9 126-399 limits assumed): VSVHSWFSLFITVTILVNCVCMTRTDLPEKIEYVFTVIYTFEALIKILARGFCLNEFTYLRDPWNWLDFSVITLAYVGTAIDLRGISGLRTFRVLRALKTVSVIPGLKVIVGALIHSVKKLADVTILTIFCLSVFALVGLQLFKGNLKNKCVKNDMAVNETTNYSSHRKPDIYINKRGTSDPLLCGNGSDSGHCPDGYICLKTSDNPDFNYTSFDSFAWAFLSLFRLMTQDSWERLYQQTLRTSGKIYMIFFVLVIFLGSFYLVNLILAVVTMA
# Chain of human NaV 1.8 (Q9Y5Y9 660-890 limits assumed): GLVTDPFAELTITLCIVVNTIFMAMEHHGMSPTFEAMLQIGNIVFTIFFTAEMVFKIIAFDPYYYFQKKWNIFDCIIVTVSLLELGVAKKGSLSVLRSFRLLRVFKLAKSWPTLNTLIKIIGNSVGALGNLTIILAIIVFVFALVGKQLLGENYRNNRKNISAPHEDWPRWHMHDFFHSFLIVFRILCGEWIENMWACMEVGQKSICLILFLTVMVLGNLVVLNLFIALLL
# Chain of human NaV 1.8 (Q9Y5Y9 1148-1722 limits assumed): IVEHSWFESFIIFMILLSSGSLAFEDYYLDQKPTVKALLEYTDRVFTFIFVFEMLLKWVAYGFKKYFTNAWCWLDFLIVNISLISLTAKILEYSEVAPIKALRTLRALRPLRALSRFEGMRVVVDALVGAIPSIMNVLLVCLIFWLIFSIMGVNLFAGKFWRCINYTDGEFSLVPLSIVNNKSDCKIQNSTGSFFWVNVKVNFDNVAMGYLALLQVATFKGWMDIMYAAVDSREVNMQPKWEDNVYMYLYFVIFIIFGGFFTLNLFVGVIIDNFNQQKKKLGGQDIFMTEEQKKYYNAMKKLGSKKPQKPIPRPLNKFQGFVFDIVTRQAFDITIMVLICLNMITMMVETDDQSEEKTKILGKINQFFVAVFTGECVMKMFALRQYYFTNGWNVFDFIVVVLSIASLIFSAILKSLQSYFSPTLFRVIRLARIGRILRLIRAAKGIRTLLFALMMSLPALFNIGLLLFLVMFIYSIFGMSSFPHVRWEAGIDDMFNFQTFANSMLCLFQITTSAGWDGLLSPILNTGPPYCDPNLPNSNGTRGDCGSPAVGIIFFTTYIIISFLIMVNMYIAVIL
compound,measurement,setting,value
"COc1c([C@H]2[C@H](C(=O)Nc3ccc(C(=O)NC#N)nc3)O[C@@](C)(C(F)(F)F)[C@H]2C)ccc(F)c1F [Compound 373, N-cyano-5-[[(2R,3S,4S,5R)-3-(3,4-difluoro-2-methoxy-phenyl)-4,5-dimethyl-5-(trifluoromethyl)tetrahydrofuran-2-carbonyl]amino]pyridine-2-carboxamide]",IC50,[1],100 to 1000 nM
"CCOc1c([C@@H]2[C@@H](C(=O)Nc3ccnc(S(C)(=N)=O)c3)O[C@](C)(C(F)(F)F)[C@@H]2C)ccc(F)c1C (single isomer, unassigned) [Compound 126]",IC50,[1],100 to 1000 nM
"CCOc1c([C@H]2[C@H](C(=O)Nc3ccn(C)c(=O)c3)O[C@@](C)(C(F)(F)F)[C@H]2C)ccc(F)c1F (stereo in doubt) [Compound 103, rel-(2R,3S,4S,5R)-3-(2-ethoxy-3,4-difluorophenyl)-4,5-dimethyl-N-(1-methyl-2-oxo-1,2-dihydropyridin-4-yl)-5-(trifluoromethyl)tetrahydrofuran-2-carboxamide]",IC50,[1],< 10 nM
"Cc1nn(C(F)F)cc1NC(=O)[C@@H]1O[C@@](C)(C(F)(F)F)[C@@H](C)[C@H]1c1ccc(F)c(F)c1OCc1cn[nH]c1 [Compound 599, (2R,3S,4S,5R)-N-[1-(difluoromethyl)-3-methyl-pyrazol-4-yl]-3-[3,4-difluoro-2-(1H-pyrazol-4-ylmethoxy)phenyl]-4,5-dimethyl-5-(trifluoromethyl)tetrahydrofuran-2-carboxamide]",IC50,[1],< 10 nM
"COc1c(C2C(C(=O)Nc3ccc(P(C)(C)=O)cc3)OC(C)(C(F)(F)F)C2C)ccc(F)c1F (single isomer, unassigned) [Compound 39, 3-(3,4-difluoro-2-methoxy-phenyl)-N-(4-dimethylphosphorylphenyl)-4,5-dimethyl-5-(trifluoromethyl)tetrahydrofuran-2-carboxamide]",IC50,[1],100 to 1000 nM
"COc1c([C@H]2[C@H](C(=O)Nc3cn(S(C)(=O)=O)nc3C)O[C@@](C)(C(F)(F)F)[C@H]2C)ccc(F)c1F [Compound 180, (2R,3S,4S,5R)-3-(3,4-difluoro-2-methoxyphenyl)-4,5-dimethyl-N-(3-methyl-1-(methylsulfonyl)-1H-pyrazol-4-yl)-5-(trifluoromethyl)tetrahydrofuran-2-carboxamide]",IC50,[1],< 10 nM
"[2H]C([2H])([2H])Oc1c([C@H]2[C@H](C(=O)Nc3ccnc(N4C(=O)CN(C)C[C@H]4C)c3)O[C@@](C)(C(F)(F)F)[C@H]2C)ccc(F)c1F [Compound 519, (2R,3S,4S,5R)-3-[3,4-difluoro-2-(trideuteriomethoxy)phenyl]-N-[2-[(2R)-2,4-dimethyl-6-oxo-piperazin-1-yl]-4-pyridyl]-4,5-dimethyl-5-(trifluoromethyl)tetrahydrofuran-2-carboxamide]",IC50,[1],< 10 nM
"COc1c([C@H]2[C@H](C(=O)NCC(=O)N3CCOCC3)O[C@@](C)(C(F)(F)F)[C@H]2C)ccc(F)c1F [Compound 304, (2R,3S,4S,5R)-3-(3,4-difluoro-2-methoxyphenyl)-4,5-dimethyl-N-(2-morpholino-2-oxoethyl)-5-(trifluoromethyl)tetrahydrofuran-2-carboxamide]",IC50,[1],≥ 1000 nM
"Cc1nocc1NC(=O)[C@@H]1O[C@@](C)(C(F)(F)F)[C@@H](C)[C@H]1c1ccc(F)c(F)c1OCCN1CC2(COC2)C1 [Compound 619, (2R,3S,4S,5R)-3-(2-(2-(2-oxa-6-azaspiro[3.3]heptan-6-yl)ethoxy)-3,4-difluorophenyl)-4,5-dimethyl-N-(3-methylisoxazol-4-yl)-5-(trifluoromethyl)tetrahydrofuran-2-carboxamide]",IC50,[1],10 to 100 nM
"COc1c([C@H]2[C@H](C(=O)Nc3ccnc(N4C(=O)CN(C)C[C@@H]4CO)c3)O[C@@](C)(C(F)(F)F)[C@H]2C)ccc(F)c1F [Compound 511, (2R,3S,4S,5R)-3-(3,4-difluoro-2-methoxyphenyl)-N-(2-((R)-2-(hydroxymethyl)-4-methyl-6-oxopiperazin-1-yl)pyridin-4-yl)-4,5-dimethyl-5-(trifluoromethyl)tetrahydrofuran-2-carboxamide]",IC50,[1],< 10 nM
"COc1c(C2C(C(=O)Nc3ccnc(CO)c3)OC(C)(C(F)(F)F)C2C)ccc(F)c1F (centres unmarked) [Compound 61, 3-(3,4-difluoro-2-methoxy-phenyl)-N-[2-(hydroxymethyl)-4-pyridyl]-4,5-dimethyl-5-(trifluoromethyl)tetrahydrofuran-2-carboxamide]",IC50,[1],≥ 1000 nM
"CCc1c(F)ccc([C@@H]2C[C@](C)(C(F)(F)F)O[C@H]2C(=O)Nc2cn(S(C)(=O)=O)nc2C)c1OC (stereo in doubt) [Compound 717, rel-(2R,3S,5R)-3-(3-ethyl-4-fluoro-2-methoxyphenyl)-5-methyl-N-(3-methyl-1-(methylsulfonyl)-1H-pyrazol-4-yl)-5-(trifluoromethyl)tetrahydrofuran-2-carboxamide]",IC50,"in the presence of human serum (compound numbers followed by *), read-out: IC50 in the E-VIPR Assay, performed in the presence of human serum",100 to 1000 nM
"C[C@H]1[C@@H](c2ccc(F)c(F)c2OCCO)[C@H](C(=O)Nc2cnc3nnn(C)c3c2)O[C@@]1(C)C(F)(F)F [Compound 565, (2R,3S,4S,5R)-3-(3,4-difluoro-2-(2-hydroxyethoxy)phenyl)-4,5-dimethyl-N-(1-methyl-1H-[1,2,3]triazolo[4,5-b]pyridin-6-yl)-5-(trifluoromethyl)tetrahydrofuran-2-carboxamide]",IC50,[1],10 to 100 nM
"COc1c([C@H]2[C@H](C(=O)NCC3CN(C)C(=O)CO3)O[C@@](C)(C(F)(F)F)[C@H]2C)ccc(F)c1F (stereo partly drawn) [Compound 290, (2R,3S,4S,5R)-3-(3,4-difluoro-2-methoxyphenyl)-4,5-dimethyl-N-((4-methyl-5-oxomorpholin-2-yl)methyl)-5-(trifluoromethyl)tetrahydrofuran-2-carboxamide]",IC50,[1],≥ 1000 nM
"COc1c([C@H]2[C@H](C(=O)Nc3cc(C4(N)CCOC4)ncc3F)O[C@@](C)(C(F)(F)F)[C@H]2C)ccc(F)c1F (single isomer, unassigned) [Compound 348, rel-(2R*,3S*,4S*,5R*)-N-(2-(3-aminotetrahydrofuran-3-yl)-5-fluoropyridin-4-yl)-3-(3,4-difluoro-2-methoxyphenyl)-4,5-dimethyl-5-(trifluoromethyl)-tetrahydrofuran-2-carboxamide]",IC50,[1],10 to 100 nM
"COc1c([C@H]2[C@H](C(=O)Nc3ccc(C(=O)O)nc3)O[C@@](C)(C(F)(F)F)[C@H]2C)ccc(F)c1C(F)F (single isomer, unassigned) [Compound 176]",IC50,[1],< 10 nM
"COc1c([C@H]2[C@H](C(=O)Nc3ccc(C(N)=O)nc3)O[C@@](C)(C(F)(F)F)[C@H]2C)cccc1C(F)(F)F (stereo in doubt) [Compound 156, rel-5-((2R,3S,4S,5R)-3-(2-methoxy-3-(trifluoromethyl)phenyl)-4,5-dimethyl-5-(trifluoromethyl)tetrahydrofuran-2-carboxamido)picolinamide]",IC50,[1],< 10 nM
"COc1c([C@H]2[C@H](C(=O)Nc3cc(C(C)(N)CO)ncc3F)O[C@@](C)(C(F)(F)F)[C@H]2C)ccc(F)c1F (single isomer, unassigned) [Compound 360]",IC50,[1],< 10 nM
"COc1c([C@@H]2C[C@](C)(C(F)(F)F)O[C@H]2C(=O)Nc2cn(S(C)(=O)=O)nc2C)ccc(F)c1F (stereo in doubt) [Compound 684, rel-(2R,3S,5R)-3-(3,4-difluoro-2-methoxyphenyl)-5-methyl-N-(3-methyl-1-(methylsulfonyl)-1H-pyrazol-4-yl)-5-(trifluoromethyl)tetrahydrofuran-2-carboxamide]",IC50,[1],< 10 nM
"Cc1nn(C(N)=O)cc1NC(=O)[C@@H]1O[C@@](C)(C(F)(F)F)[C@@H](C)[C@H]1c1ccc(F)c(F)c1OCCN1CCOCC1 [Compound 593, 4-((2R,3S,4S,5R)-3-(3,4-difluoro-2-(2-morpholinoethoxy)phenyl)-4,5-dimethyl-5-(trifluoromethyl)tetrahydrofuran-2-carboxamido)-3-methyl-1H-pyrazole-1-carboxamide]",IC50,[1],10 to 100 nM
"COCCNCc1cc(NC(=O)C2OC(C)(C(F)(F)F)C(C)C2c2ccc(F)c(F)c2OC)ccn1 (centres unmarked) [Compound 60, 3-(3,4-difluoro-2-methoxy-phenyl)-N-[2-[(2-methoxyethylamino)methyl]-4-pyridyl]-4,5-dimethyl-5-(trifluoromethyl)tetrahydrofuran-2-carboxamide]",IC50,[1],< 10 nM
"CC(C)Oc1c([C@@H]2[C@@H](C(=O)Nc3ccnc(S(C)(=N)=O)c3)O[C@](C)(C(F)(F)F)[C@@H]2C)ccc(F)c1F (single isomer, unassigned) [Compound 118]",IC50,[1],≥ 1000 nM
"COc1c([C@H]2[C@H](C(=O)Nc3ccnc(N4CCN(C)CC4=O)c3)O[C@@](C)(C(F)(F)F)[C@H]2C)ccc(F)c1C(F)F (single isomer, unassigned) [Compound 162]",IC50,[1],< 10 nM
"Cc1c(F)ccc([C@H]2[C@H](C(=O)Nc3ccn(C)c(=O)c3)O[C@@](C)(C(F)(F)F)[C@H]2C)c1OC(F)F (stereo in doubt) [Compound 100, rel-(2R,3S,4S,5R)-3-(2-(difluoromethoxy)-4-fluoro-3-methylphenyl)-4,5-dimethyl-N-(1-methyl-2-oxo-1,2-dihydropyridin-4-yl)-5-(trifluoromethyl)tetrahydrofuran-2-carboxamide]",IC50,[1],< 10 nM
"COc1c([C@H]2[C@H](C(=O)Nc3ccnc(N4CC(N)CC4=O)c3)O[C@@](C)(C(F)(F)F)[C@H]2C)ccc(F)c1F (single isomer, unassigned) [Compound 495, rel-(2R*,3S*,4S*,5R*)-N-(2-(4-amino-2-oxopyrrolidin-1-yl)pyridin-4-yl)-3-(3,4-difluoro-2-methoxyphenyl)-4,5-dimethyl-5-(trifluoromethyl)tetrahydrofuran-2-carboxamide]",IC50,[1],< 10 nM
"COc1c([C@H]2[C@H](C(=O)Nc3ccnc(CN4CCOCC4)c3)O[C@@](C)(C(F)(F)F)[C@H]2C)ccc(F)c1F [Compound 181, (2R,3S,4S,5R)-3-(3,4-difluoro-2-methoxyphenyl)-4,5-dimethyl-N-(2-(morpholinomethyl)pyridin-4-yl)-5-(trifluoromethyl)tetrahydrofuran-2-carboxamide]",IC50,[1],10 to 100 nM
